Measured values as given in patent US20260092071A1, “COMPOUNDS AND COMPOSITIONS AS SMARCA2/4 DEGRADERS AND USES THEREOF” (REGENTS OF THE UNIVERSITY OF MICHIGAN, priority 2022, published 2026).
Read-outs that look alike come from different tables or passages of the source.

What was measured:
SMARCA4 = SMARCA4 (Homo sapiens, UniProt P51532); assay: HiBiT assay for protein degradation, Hela SMARCA4-HiBiT cells (A series); assay type: cell-based; design: fuse HiBiT to the carboxy terminus of SMARCA2 (Promega CS302365) or SMARCA4 (Promega CS3023225); host or cells: HeLa (CRISPR/Cas9 HiBiT knock-in); conditions: for DC50: read-out: SMARC A4 Hela HiBit DC50
Chain of SMARCA4 (P51532 whole entry, the tested form may be a part): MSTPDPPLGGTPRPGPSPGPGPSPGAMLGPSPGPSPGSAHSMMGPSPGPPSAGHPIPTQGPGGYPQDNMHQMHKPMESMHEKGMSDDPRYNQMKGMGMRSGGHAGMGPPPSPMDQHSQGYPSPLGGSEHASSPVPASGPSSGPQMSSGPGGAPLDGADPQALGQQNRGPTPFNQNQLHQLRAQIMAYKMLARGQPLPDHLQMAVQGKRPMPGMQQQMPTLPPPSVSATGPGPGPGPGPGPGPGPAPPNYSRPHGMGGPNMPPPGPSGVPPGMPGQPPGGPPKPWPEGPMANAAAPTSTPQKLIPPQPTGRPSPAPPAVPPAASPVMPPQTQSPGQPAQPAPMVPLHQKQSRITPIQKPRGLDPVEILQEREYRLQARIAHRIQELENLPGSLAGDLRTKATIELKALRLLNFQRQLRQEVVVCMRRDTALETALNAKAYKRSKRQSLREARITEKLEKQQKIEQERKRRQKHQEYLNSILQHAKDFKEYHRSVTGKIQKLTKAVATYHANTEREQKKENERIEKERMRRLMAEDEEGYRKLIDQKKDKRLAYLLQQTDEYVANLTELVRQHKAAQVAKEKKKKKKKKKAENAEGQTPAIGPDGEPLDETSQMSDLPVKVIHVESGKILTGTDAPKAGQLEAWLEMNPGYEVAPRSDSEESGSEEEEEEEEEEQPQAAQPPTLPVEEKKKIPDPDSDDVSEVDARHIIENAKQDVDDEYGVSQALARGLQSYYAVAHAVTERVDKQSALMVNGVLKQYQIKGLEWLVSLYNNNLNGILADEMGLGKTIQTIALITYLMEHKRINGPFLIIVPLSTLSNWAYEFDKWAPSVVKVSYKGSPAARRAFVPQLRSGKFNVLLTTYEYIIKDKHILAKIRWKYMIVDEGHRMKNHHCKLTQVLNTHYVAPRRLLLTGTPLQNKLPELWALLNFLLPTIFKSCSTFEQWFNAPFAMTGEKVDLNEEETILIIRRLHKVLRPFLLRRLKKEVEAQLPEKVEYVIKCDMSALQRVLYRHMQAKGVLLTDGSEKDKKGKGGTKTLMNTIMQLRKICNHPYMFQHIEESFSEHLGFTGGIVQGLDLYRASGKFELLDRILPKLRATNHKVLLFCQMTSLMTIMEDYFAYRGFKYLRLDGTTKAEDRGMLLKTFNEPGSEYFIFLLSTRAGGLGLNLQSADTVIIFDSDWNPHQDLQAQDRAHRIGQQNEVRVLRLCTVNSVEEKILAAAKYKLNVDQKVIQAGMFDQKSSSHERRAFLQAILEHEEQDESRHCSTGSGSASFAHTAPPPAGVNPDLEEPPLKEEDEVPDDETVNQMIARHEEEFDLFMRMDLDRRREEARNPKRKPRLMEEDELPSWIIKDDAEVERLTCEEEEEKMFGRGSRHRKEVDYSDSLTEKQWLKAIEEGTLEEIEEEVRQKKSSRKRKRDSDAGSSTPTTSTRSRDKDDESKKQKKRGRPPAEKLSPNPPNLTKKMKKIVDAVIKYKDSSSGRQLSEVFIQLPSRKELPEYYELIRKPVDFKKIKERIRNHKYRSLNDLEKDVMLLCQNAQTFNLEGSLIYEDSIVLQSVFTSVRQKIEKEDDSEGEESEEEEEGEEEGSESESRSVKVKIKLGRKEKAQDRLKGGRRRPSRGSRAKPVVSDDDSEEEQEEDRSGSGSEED
In short: (§1)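 HeLa cells engineered by CRISPR/Cas9 to carry a HiBiT tag fused to the C-terminus of SMARCA4 (Promega CS3023225) were grown in DMEM supplemented with FBS and penicillin-streptomycin. After compound exposure, remaining SMARCA4 protein was quantified using the Nano-Glo® HiBiT Lytic Detection Assay (Promega N3050), and curves were fitted in GraphPad Prism.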

SMARCA2 = SMARCA2 (Homo sapiens, UniProt P51531); assay: HiBiT assay for protein degradation, Hela SMARCA2-HiBiT cells (A series); assay type: cell-based; design: Hela cells were genetically modified via CRISPR/Cas9 to fuse HiBiT to the carboxy terminus of SMARCA2; host or cells: HeLa (CRISPR/Cas9 HiBiT knock-in); conditions: for DC50: read-out: SMARC A2 Hela HiBit DC50; for Dmax: read-out: SMARC A2 Hela HiBit Dmax (%);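 for SMARC A2 Hela HiBit Dmax (%): 24 h compound treatment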
Chain of SMARCA2 (P51531 whole entry): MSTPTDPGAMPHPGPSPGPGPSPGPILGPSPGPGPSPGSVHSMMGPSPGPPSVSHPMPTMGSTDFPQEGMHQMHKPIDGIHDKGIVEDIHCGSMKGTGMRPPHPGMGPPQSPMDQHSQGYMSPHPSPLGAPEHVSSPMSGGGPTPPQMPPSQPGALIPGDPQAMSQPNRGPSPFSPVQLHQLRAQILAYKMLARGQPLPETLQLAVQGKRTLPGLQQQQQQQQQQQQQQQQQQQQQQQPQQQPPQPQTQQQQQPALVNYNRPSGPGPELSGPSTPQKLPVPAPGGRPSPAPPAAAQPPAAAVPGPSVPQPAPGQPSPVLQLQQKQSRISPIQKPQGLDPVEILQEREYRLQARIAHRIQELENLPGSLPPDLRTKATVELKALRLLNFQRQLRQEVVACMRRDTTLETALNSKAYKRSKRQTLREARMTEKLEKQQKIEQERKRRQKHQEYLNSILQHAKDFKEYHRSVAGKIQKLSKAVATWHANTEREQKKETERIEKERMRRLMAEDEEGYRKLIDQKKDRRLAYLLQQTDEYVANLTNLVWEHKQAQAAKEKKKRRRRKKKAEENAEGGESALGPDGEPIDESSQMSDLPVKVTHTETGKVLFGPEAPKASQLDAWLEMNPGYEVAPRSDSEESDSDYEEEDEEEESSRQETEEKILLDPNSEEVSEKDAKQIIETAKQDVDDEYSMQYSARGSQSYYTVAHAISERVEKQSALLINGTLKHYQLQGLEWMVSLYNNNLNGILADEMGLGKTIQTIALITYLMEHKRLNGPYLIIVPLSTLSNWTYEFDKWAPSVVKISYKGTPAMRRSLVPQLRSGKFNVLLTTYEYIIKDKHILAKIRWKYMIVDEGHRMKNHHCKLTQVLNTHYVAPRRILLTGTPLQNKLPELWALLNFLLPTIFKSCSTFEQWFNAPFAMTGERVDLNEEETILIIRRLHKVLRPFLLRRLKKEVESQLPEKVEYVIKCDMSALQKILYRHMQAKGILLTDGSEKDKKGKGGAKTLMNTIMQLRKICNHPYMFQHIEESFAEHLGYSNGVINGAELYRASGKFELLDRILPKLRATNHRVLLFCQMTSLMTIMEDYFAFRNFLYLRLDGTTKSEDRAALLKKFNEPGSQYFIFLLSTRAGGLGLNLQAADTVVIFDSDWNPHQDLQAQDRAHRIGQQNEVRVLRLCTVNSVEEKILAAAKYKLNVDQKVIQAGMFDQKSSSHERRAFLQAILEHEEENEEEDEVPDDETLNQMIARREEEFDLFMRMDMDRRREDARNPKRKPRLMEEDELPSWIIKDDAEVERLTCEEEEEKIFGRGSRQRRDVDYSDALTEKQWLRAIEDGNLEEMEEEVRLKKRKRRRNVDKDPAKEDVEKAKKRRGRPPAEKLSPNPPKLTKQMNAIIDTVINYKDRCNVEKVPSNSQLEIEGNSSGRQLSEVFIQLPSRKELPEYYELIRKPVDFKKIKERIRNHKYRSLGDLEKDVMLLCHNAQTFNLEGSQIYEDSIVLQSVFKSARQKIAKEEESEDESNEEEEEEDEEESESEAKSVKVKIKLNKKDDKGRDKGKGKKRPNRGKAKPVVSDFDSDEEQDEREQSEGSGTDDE
In short: as §1, with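 “SMARCA2” for “SMARCA4”, “CS302365)” for “CS3023225)”, “treatment,” for “compound exposure,”, “with” for “using”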

[1] = Hela SMARCA4-HiBiT cells, 24 hours treatment
[2] = Hela SMARCA4-HiBiT cells, 24 hours treatment, read-out: SMARC A4 Hela HiBit Dmax
[3] = Hela SMARCA2-HiBiT cells, 24 hours treatment
[4] = HeLa, read-out: SMARC A4 Hela HiBit Dmax(%)
[5] = Hela SMARCA4-HiBiT cells, 24 hours treatment, read-out: SMARC A4 Hela HiBit Dmax(%)

Row | DC50 (SMARCA4; [1]) [nM] | Dmax (SMARCA4; [2]) [%] | DC50 (SMARCA2; [3]) [nM] | Dmax (SMARCA2; [3]) [%] | SMILES | Dmax (SMARCA2; HeLa) [%] | further results
1 | > 1000 | < 50 | < 10 | > 90 | Cc1ncsc1-c1ccc([C@H](CN2CC3(COC3)C2)NC(=O)[C@@H]2C[C@@H](O)CN2C(=O)[C@@H](n2cc([C@H]3CC[C@H](CN4CCC(c5ccc6c(c5)-n5c(nc(=O)c7c(Cl)cccc75)C6(C)C)CC4)CC3)nn2)C(C)(C)C)cc1 [Compound A98, (2S,4R)-1-((S)-2-(4-((1r,4S)-4-((4-(4-chloro-7,7-dimethyl-5-oxo-5,7-dihydroindolo[1,2-a]quinazolin-10-yl)piperidin-1-yl)methyl)cyclohexyl)-1H-1,2,3-triazol-1-yl)-3,3-dimethylbutanoyl)-4-hydroxy-N—((R)-1-(4-(4-methylthiazol-5-yl)phenyl)-2-(2-oxa-6-azaspiro[3.3]heptan-6-yl)ethyl)pyrrolidine-2-carboxamide] | – | –
2 | > 1000 | < 50 | 10 to 100 | 70 to 90 | Cc1ncsc1-c1ccc([C@H](CC(=O)O)NC(=O)[C@@H]2C[C@@H](O)CN2C(=O)[C@@H](n2cc([C@H]3CC[C@H](CN4CCC(c5ccc6c(c5)-n5c(nc(=O)c7c(Cl)cccc75)C65CCCCC5)CC4)CC3)nn2)C(C)(C)C)cc1 [Compound A146, (S)-3-((2S,4R)-1-((S)-2-(4-((1r,4S)-4-((4-(4′-chloro-5′-oxo-5′H-spiro[cyclohexane-1,7′-indolo[1,2-a]quinazolin]-10′-yl)piperidin-1-yl)methyl)cyclohexyl)-1H-1,2,3-triazol-1-yl)-3,3-dimethylbutanoyl)-4-hydroxypyrrolidine-2-carboxamido)-3-(4-(4-methylthiazol-5-yl)phenyl) propanoic acid] | – | –
3 | > 1000 | < 50 | < 10 | > 90 | Cc1ncsc1-c1ccc([C@H](CN2CCC(F)(F)CC2)NC(=O)[C@@H]2C[C@@H](O)CN2C(=O)[C@@H](n2cc([C@H]3CC[C@H](CN4CCC(c5ccc6c(c5)-n5c(nc(=O)c7c(Cl)cccc75)C6(C)C)CC4)CC3)nn2)C(C)(C)C)cc1 [Compound A94, (2S,4R)-1-((S)-2-(4-((1r,4S)-4-((4-(4-chloro-7,7-dimethyl-5-oxo-5,7-dihydroindolo[1,2-a]quinazolin-10-yl)piperidin-1-yl)methyl)cyclohexyl)-1H-1,2,3-triazol-1-yl)-3,3-dimethylbutanoyl)-N—((R)-2-(4,4-difluoropiperidin-1-yl)-1-(4-(4-methylthiazol-5-yl)phenyl)ethyl)-4-hydroxypyrrolidine-2-carboxamide] | – | –
4 | > 1000 | 50 to 69 | < 10 | > 90 | Cc1ncsc1-c1ccc([C@H](CC(=O)N(C)C)NC(=O)[C@@H]2C[C@@H](O)CN2C(=O)[C@@H](n2cc([C@H]3CC[C@H](CN4CCC(c5ccc6c(c5)-n5c(nc(=O)c7c(Cl)cccc75)C65CCCCC5)CC4)CC3)nn2)C(C)(C)C)cc1 [Compound A147, (2S,4R)-1-((S)-2-(4-((1r,4S)-4-((4-(4′-chloro-5′-oxo-5′H-spiro[cyclohexane-1,7′-indolo[1,2-a]quinazolin]-10′-yl)piperidin-1-yl)methyl)cyclohexyl)-1H-1,2,3-triazol-1-yl)-3,3-dimethylbutanoyl)-N—((S)-3-(dimethylamino)-1-(4-(4-methylthiazol-5-yl)phenyl)-3-oxopropyl)-4-hydroxypyrrolidine-2-carboxamide] | – | –

Further lines, the molecule ahead of its results:

Row | SMILES | DC50 (SMARCA4; [1]) [nM] | Dmax (SMARCA4; [2]) [%] | DC50 (SMARCA2; [3]) [nM] | Dmax (SMARCA2; [3]) [%] | Dmax (SMARCA2; HeLa) [%] | further results
5 | Cc1ncsc1-c1ccc([C@H](C)NC(=O)[C@@H]2C[C@@H](O)CN2C(=O)[C@@H](NC(=O)CCCCCN2CCC(c3ccc4c(c3)C3(CCCCC3)c3nc(=O)c5c(Cl)cccc5n3-4)CC2)C(C)(C)C)cc1 [Compound A9, (2S,4R)-1-((S)-2-(6-(4-(4′-chloro-5′-oxo-5′H-spiro[cyclohexane-1,7′-indolo[1,2-a]quinazolin]-9′-yl)piperidin-1-yl)hexanamido)-3,3-dimethylbutanoyl)-4-hydroxy-N—((S)-1-(4-(4-methylthiazol-5-yl)phenyl)ethyl) pyrrolidine-2-carboxamide] | 501 to 1000 | – | < 100 | – | > 90 | Dmax (SMARCA4; [4]): 50 to 69%
6 | Cc1ncsc1-c1ccc([C@H](C)NC(=O)[C@@H]2C[C@@H](O)CN2C(=O)[C@@H](NC(=O)C23CCC(CN4CCC(c5ccc6c(c5)C5(CCCCC5)c5nc(=O)c7c(Br)cccc7n5-6)CC4)(CC2)CC3)C(C)(C)C)cc1 [Compound A27, (2S,4R)-1-((S)-2-(4-((4-(4′-bromo-5′-oxo-5′H-spiro[cyclohexane-1,7′-indolo[1,2-a]quinazolin]-9′-yl)piperidin-1-yl)methyl)bicyclo[2.2.2]octane-1-carboxamido)-3,3-dimethylbutanoyl)-4-hydroxy-N—((S)-1-(4-(4-methylthiazol-5-yl)phenyl)ethyl)pyrrolidine-2-carboxamide] | – | – | – | – | 70 to 90 | Dmax (SMARCA4; [5]): 50 to 69%; DC50 (SMARCA4): 501 to 1000 nM; DC50 (SMARCA2): < 100 nM
7 | Cc1ncsc1-c1ccc([C@H](C)NC(=O)[C@@H]2C[C@@H](O)CN2C(=O)[C@@H](n2cc(C3(CCN4CCC(c5ccc6c(c5)-n5c(nc(=O)c7c(Br)cccc75)C65CCCCC5)CC4)CC3)nn2)C(C)(C)C)cc1 [Compound A65, (2S,4R)-1-((S)-2-(4-(1-(2-(4-(4′-bromo-5′-oxo-5′H-spiro[cyclohexane-1,7′-indolo[1,2-a]quinazolin]-10′-yl)piperidin-1-yl)ethyl)cyclopropyl)-1H-1,2,3-triazol-1-yl)-3,3-dimethylbutanoyl)-4-hydroxy-N—((S)-1-(4-(4-methylthiazol-5-yl)phenyl)ethyl)pyrrolidine-2-carboxamide] | – | – | – | – | – | SMARC A4 Hela HiBit Dmax(%) (SMARCA4; [1]): A (A (>90% degradation)); DC50 (SMARCA4): < 100 nM; SMARC A2 Hela HiBit Dmax (%) (SMARCA2; [3]): A (A (>90% degradation)); DC50 (SMARCA2): < 100 nM
8 | Cc1ncsc1-c1ccc([C@H](C)NC(=O)[C@@H]2C[C@@H](O)CN2C(=O)[C@@H](NC(=O)[C@H]2CC[C@H](CN3CCC(N4CCC(c5ccc6c(c5)C5(CCCCC5)c5nc(=O)c7c(Cl)cccc7n5-6)CC4)CC3)CC2)C(C)(C)C)cc1 [Compound A13, (2S,4R)-1-((S)-2-((1r,4S)-4-((4-(4′-chloro-5′-oxo-5′H-spiro[cyclohexane-1,7′-indolo[1,2-a]quinazolin]-9′-yl)-[1,4′-bipiperidin]-1′-yl)methyl)cyclohexane-1-carboxamido)-3,3-dimethylbutanoyl)-4-hydroxy-N—((S)-1-(4-(4-methylthiazol-5-yl)phenyl)ethyl)pyrrolidine-2-carboxamide] | – | – | < 100 | 70 to 90 | – | SMARC A4 Hela HiBit DC50(nM) (SMARCA4; [1]): No fit; Dmax (SMARCA4; [5]): < 50%
9 | Cc1ncsc1-c1ccc([C@H](C)NC(=O)[C@@H]2C[C@@H](O)CN2C(=O)[C@@H](NC(=O)CN2CCC(c3ccc4c(c3)C3(CCCCC3)c3nc(=O)c5c(Cl)cccc5n3-4)CC2)C(C)(C)C)cc1 [Compound A5, (2S,4R)-1-((S)-2-(2-(4-(4′-chloro-5′-oxo-5′H-spiro[cyclohexane-1,7′-indolo[1,2-a]quinazolin]-9′-yl)piperidin-1-yl)acetamido)-3,3-dimethylbutanoyl)-4-hydroxy-N—((S)-1-(4-(4-methylthiazol-5-yl)phenyl)ethyl) pyrrolidine-2-carboxamide] | < 100 | – | < 100 | – | > 90 | Dmax (SMARCA4; [4]): > 90%
